Consider two compounds from PMC11493283, “N^4-Hydroxycytidine/molnupiravir inhibits RNA virus-induced encephalitis by producing less fit mutated viruses” (PLOS Pathogens, 2024).

SMILES strings stand for the structures.

In series [1] the test system is LACV. In words: LACV encephalitis mouse model, IP inoculation. The class given is in vivo, C57BL/6 mice. The procedure:
(§1) Viral RNA was isolated using the Zymo Direct-zol RNA MiniPrep Kit (Zymo Research) per the manufacturer’s directions. First-strand complementary DNA (cDNA) was generated using iScript Reverse Transcriptase (Bio-Rad). qRT-PCR was performed using PowerUp SYBR Green Master Mix (ThermoFischer) on QuantStudio 6 (Applied Biosystems). Primers used for the reaction were synthesized by Integrated DNA Technologies (IDT) to quantify LACV viral RNA, targeting the M segment of the genome: forward primer 5’-[…]-3’, reverse primer 5’-[…]-3’.
(§2) All animal experiments were performed following the protocols 2019-023-E and 2022-019-E approved by the National Institute of Allergy and Infectious Disease/National Institutes of Health/Rocky Mountain Laboratories Institutional Animal Care and Use Committee. For this study, a mix of male and female C57BL/6 mice at 23 to 25 days old were used. Mice were divided evenly and infected with LACV at either 1 × 10^3 pfu by an IP route or 1 x 10^2 pfu by an IN route. IP-infected mice were started on treatment with MOV at either the date of infection or at 3 dpi; the IN-infected mice were started on treatment on the day of infection. MOV was diluted in 10% polyethylene glycol (PEG), 2.5% Cremophor RH40, and 87.5% sterile water which was used as vehicle control. For oral administration, 300 mg/kg of MOV twice a day was given for up to 10 consecutive days using a straight 24-gauge ball-tip disposable feeding needle (Instech). Mice were examined twice daily for 28–30 days for clinical signs of LACV-induced neurologic disease, which mostly involved limb paralysis, ataxia, or repeated seizures. Mice showing one or more of these clinical symptoms were scored as having clinically significant disease and were subsequently euthanized for tissue removal. Occasionally, LACV-infected mice died from the acute seizures. These mice were also scored as having clinically significant disease and underwent tissue removal when possible.
(§3) Brain tissue and lymph nodes were harvested from mice with clinical symptoms (as described above) or at 5 dpi and stored at -80°C. Half of the sagittal section of the brain tissue was used for plaque assays, and the other half for RNA isolation for qRT-PCR and sequencing. For the plaque assay, brain tissues were homogenized in the presence of DMEM using the Bead Mill 24 (Fisher Scientific) homogenizer at 5,300 rpm for 25 seconds. Homogenized samples were centrifuged at 5000 x g for 10 min. Supernatants were then diluted in DMEM containing 10% FBS to 10^−1 to 10^−7 dilutions and subjected to a plaque assay.
We used a digital scanner to scan the plaque assay plates. Digitized images were imported into FIJI/ImageJ v1.52n, and pixel calibration values were calculated based on the well diameter and corresponding digitized image. To quantify plaque size (surface area), wells with clearly isolated plaques were selected for segmentation and analysis. The image lookup table for each well was inverted followed by binarization prior to analysis, with a minimum area of 0.39 mm^2 to eliminate false positives due to slight variations in crystal violet staining. The measurements were imported into Microsoft Excel for data compilation, and graphed and analyzed using GraphPad Prism v9.3.1. Analysis of plaque size was done only when the plaque assays for different virus samples were done in parallel.

In series [2] the test system is LACV. As to the kind of experiment: LACV encephalitis mouse model, IN inoculation. It is filed as in vivo, C57BL/6 mice. The procedure:
as §1, §2, §3

The test system of series [3] is LACV. In words: MPID-NGS mutation rate of LACV RNA in brain tissue, IP-infected mice. It is filed as in vivo, C57BL/6 mice. The source says:
(§4) We used a Primer ID (PID) library preparation approach with Illumina MiSeq next-generation sequencing (NGS) to examine the mutagenic effects of these drugs on viral RNA allowing deep coverage of the viral population while maintaining a low method error rate (1 in 10,000 nucleotides). We designed cDNA primers targeting a 372 bp region of the RdRp gene within the L segment (referred as L7 in the study), and included a second amplicon covering a 455 bp portion of the M segment (referred as M4 in the study). Each cDNA primer included a block of random nucleotides (11 bases long) as the Primer ID/unique molecular identifier (UMI). Extracted viral RNA was reversed transcribed using SuperScript III (Thermal Fisher) to make cDNA in a single reaction with the two different cDNA primers. After bead purification, the cDNA was amplified by PCR using a mixture of forward primers and a universal reverse primer, followed by a second round of PCR to incorporate Illumina sequencing adapters and barcodes within the amplicons. After gel purification/extraction of the PCR product (Qiagen MinElute Gel Extraction kit), the extracted libraries were quantified using a Qubit fluorimeter and subjected to Agilent TapeStation analysis. For each sequencing run, 24 quantified libraries were pooled for MiSeq 300 base paired-end sequencing at the UNC High Throughput Sequencing Facility. Primers used for the library prep can be found in S1 Table. The initial Primer ID data were processed using the Illumina bcl2fastq pipeline (version 2.20.0), and then template consensus sequences (TCSs) were constructed using the tcs pipeline version 2.5.1 (https://primer-id.org/). Each type of substitution rate was calculated against the wildtype sequence at the sequenced regions. The sequencing date were submitted to the National Center for Biotechnology Information (NCBI) Sequence Read Archive (SRA), accession number is PRJNA1092655.
All animal experiments were performed following the protocols 2019-023-E and 2022-019-E approved by the National Institute of Allergy and Infectious Disease/National Institutes of Health/Rocky Mountain Laboratories Institutional Animal Care and Use Committee. For this study, a mix of male and female C57BL/6 mice at 23 to 25 days old were used. Mice were divided evenly and infected with LACV at either 1 × 10^3 pfu by an IP route or 1 x 10^2 pfu by an IN route. […] Mice showing one or more of these clinical symptoms were scored as having clinically significant disease and were subsequently euthanized for tissue removal. […] These mice were also scored as having clinically significant disease and underwent tissue removal when possible.

Series [4] deals with LACV. As to the kind of experiment: MPID-NGS mutation rate of LACV RNA in brain tissue, IN-infected mice. It is filed as in vivo, C57BL/6 mice. Conditions: IN infection.
Text: as §4, with “After bead purification, the cDNA was amplified by PCR using a mixture of forward primers and a universal reverse primer, followed by a second round of PCR to incorporate Illumina sequencing adapters and barcodes within the amplicons.” left out, “Primers used for the library prep can be found in S1 Table. The initial Primer ID data were processed using the Illumina bcl2fastq pipeline (version 2.20.0), and then template consensus sequences (TCSs) were constructed using the tcs pipeline version 2.5.1 (https://primer-id.org/).” left out, “PRJNA1092655. […]” for “PRJNA1092655.”

Series [5] deals with LACV. In words: Antiviral efficacy against LACV in Vero cells, virus titer by plaque assay. It is filed as cell-based. The following applies: La Crosse virus, LACV 0.1 MOI, 24 hpi, read-out: EC50 (50% reduction in virus titer). The procedure: (§5) Cells were seeded in 24-well plates (1 × 10^5 cells/well) and infected with LACV (0.1 MOI). At 1 hour post infection (hpi), medium was replaced with fresh medium containing 6 different concentrations for each of the drugs. RBV and FAV were tested at concentrations of 1, 3, 10, 30, 100, and 300 μM, while NHC was tested at concentrations of 0.1, 0.3, 1, 3, 10 and 30 μM. DMSO was used as vehicle control. At 24 hpi, the cell supernatant was harvested, centrifuged to eliminate cell debris and stored at −80 °C for sequencing (described below) and plaque assay following the method of Ojha et al. 2021 [32]. Quantified virus titers were plotted to represent antiviral efficacy. The EC50 (50% effective concentration representing a 50% reduction in virus titer) was determined by extrapolating a dose-response curve using GraphPad Prism 8 and 9.

Series [6] deals with LACV. In words: Antiviral efficacy against LACV in N2a cells, virus titer by plaque assay. It is filed as cell-based. The following applies: La Crosse virus, LACV 0.1 MOI, 24 hpi, read-out: EC50 (50% reduction in virus titer). On the procedure: as §5
Series [7] has as its system LACV. As to the kind of experiment: Antiviral efficacy against LACV in hNSCs, virus titer by plaque assay. The class given is cell-based. The following applies: La Crosse virus, LACV 0.1 MOI, 24 hpi, read-out: EC50 (50% reduction in virus titer). The procedure:
as §5

Series [8] can be described thus: in vitro. The class given is cell-based. Conditions: MTT, 24h. The procedure:
Method: Cells were seeded in 96-well plates (1-2x10^4 cells/well) after attachment different concentrations of each drug containing fresh media were added to each well, in triplicate. DMSO was used as a control. At 24h post-treatment, MTT assays were carried out according to the manufacturer’s instructions (Invitrogen, ThermoFisher Scientific). The absorbance was measured using the Synergy 4 cell plate reader (BioTek) at 540 nm. This assay was used to estimate the drug-induced cytotoxicity using the following formula: (sample absorbance/DMSO absorbance) × 100%. The CC50 (50% cytotoxic concentration) was determined by extrapolating the dose–response curve.

The subject of series [9] is LACV. In words: MPID-NGS mutation rate of LACV in cell culture. The class given is cell-based, La Crosse virus. The following applies: Vero cells; RBV, FAV: increase only at 100 μM; NHC also in hNSCs and N2a. On the procedure: as §5
as §4, with “Extracted viral RNA was reversed transcribed using SuperScript III (Thermal Fisher) to make cDNA in a single reaction with the two different cDNA primers. After bead purification, the cDNA was amplified by PCR using a mixture of forward primers and a universal reverse primer, followed by a second round of PCR to incorporate Illumina sequencing adapters and barcodes within the amplicons.” left out, “Primers used for the library prep can be found in S1 Table. The initial Primer ID data were processed using the Illumina bcl2fastq pipeline (version 2.20.0), and then template consensus sequences (TCSs) were constructed using the tcs pipeline version 2.5.1 (https://primer-id.org/).” left out

Setting [10] is: day 5, MOV from day 0, IP infection.
Where [11] appears, read: oral MOV, started on the day of infection.

With `CC(C)C(=O)OC[C@H]1O[C@@H](n2ccc(NO)nc2=O)[C@H](O)[C@@H]1O` [MOV, molnupiravir], the “mice survived through 28-30 dpi” value in [1] (MOV 300 mg/kg oral twice daily, delayed until 3 dpi, LACV 10^3 pfu IP) was 15%. For the same compound, the “mice survived to 28-30 dpi” value in series [1] (MOV 300 mg/kg oral twice daily, started on the day of infection, LACV 10^3 pfu IP) was 31%. Besides, in [1] (setting [10]), the “infectious virus titer in brain tissue vs vehicle (plaque assay)” value is listed as “significantly decreased”, the “viral RNA load in brain tissue vs vehicle (qRT-PCR)” value is given as “significantly decreased” and the “viral RNA load in lymph nodes vs vehicle (qRT-PCR)” value was “significantly decreased”. In addition, in [1] (setting [11]), the “decrease in neurological disease development” value was found to be 31% and the “mice survived out of 13” value was determined as 4. Also, in series [1] (virus isolated from brain, IP infection), the “average plaque size of virus from brain vs virus not exposed to MOV” value is “significantly smaller”. The “mice with clinical signs out of 13” value in [2] (MOV 300 mg/kg oral twice daily, IN infection, vehicle 7) worked out at 4. Besides, the “reduction in disease vs vehicle” value in series [2] (MOV oral from day of infection, IN infection) is listed as about 50%. Moreover, in series [2] (clinical mice, IN infection), the “infectious virus titer in the brain vs vehicle (plaque assay)” value is on record as “slightly, but not significantly decreased” and the “viral RNA in the brain vs vehicle (qRT-PCR)” value is “significantly decreased”. In addition, the “disease reduced by (abstract)” value in series [2] (virus administered intranasally) worked out at 23%. In addition, in [3] (brain tissue, IP infection), the “increase in C-to-U transition rate vs vehicle” value is reported as 9.1 per 10,000 bases and the “increase in G-to-A transition rate vs vehicle” value was 5.2 per 10,000 bases. Further, the “increase in total mutation rate of the virus vs vehicle” value in series [3] (brain tissue, IP infection, averaged across amplicons) is 2.8 per 10,000 bases. For the same compound, the “decrease in viral load in brain tissue per 1 mutation increase per 10,000 nucleotides” value in series [3] (estimate from mutation rate vs LACV copy number) is reported as “approximately 4.4 fold”. In addition, in series [4], the “increase in C-to-U mutations vs vehicle” value was 4.3 per 10,000 bases and the “increase in G-to-A mutations vs vehicle” value is 4.3 per 10,000 bases.
With `NC(=O)c1ncn([C@@H]2O[C@H](CO)[C@@H](O)[C@H]2O)n1` [RBV, ribavirin], the EC50 in [5] came out at 42.7 µM; in series [6], 3.8 µM; in series [7], 27.7 µM. Moreover, the cytotoxic concentration (CC50) in series [8] (African green monkey, Vero cells) amounted to 1780 µM; in [8] (human, hNSCs) it was 1260 µM. Further, in [9], the “mutation rate of LACV grown in presence of drug” value is listed as “did not see a significant increase in mutation rates”.

By EC50 is commonly meant the midpoint of the concentration-response curve. As a reminder, the CC50 is the concentration giving 50% cytotoxicity.
